pIC50: −log10 of the molar value. Like-named read-outs stand apart in the source and are kept apart here.

These results are taken from patent publication US8835433B2, “Optically pure diastereomers of 10-Propargyl-10-deazaaminopterin and methods of using same for the treatment of cancer” (Allos Therapeutics, Inc., priority 2010, dated 2014).

One data set deals with cancer cell lines. In words: In vitro cytotoxicity in additional solid and heme cancer cell lines. The class given is cell-based. The conditions noted are these: some / other cell lines (T-cell lymphoma, multiple myeloma, others); Example 5. As for the experimental part: Additional cancer cell lines can be tested in accordance with the methods outlined in Example 3. Cancer cell lines for T-cell lymphoma, multiple myeloma, hematologic malignancies, head and neck cancer, cancer of the gastrointestinal tract, ovarian cancer, and osteosarcoma are tested with PDX-10a and PDX-10b.

Data set [1] relates to SKBR-3 (breast cancer) human tumor cell line. In words: MTS growth inhibition assay, SKBR-3. The data set is classed as cell-based. The conditions noted are these: SK-BR-3, SK-BR3 (breast), 3 h treatment, 72 h recovery. As for the experimental part:
(§1) The agents PDX, PDX-10a, PDX-10b, were evaluated for growth inhibitory activity against, MDA-MB-435, SKBR-3 and NCI-H460 human tumor cell lines. Growth inhibition was measured by MTS assay following three hours of continuous treatment and a seventy-two hour recovery incubation. The purpose of these studies was to determine the cytotoxic activity of the compounds in the tumor cell lines studies studied.
Materials and Methods. Preparation of PDX-10a and PDX-10b was performed as discussed in Examples 1-2. The PDX compounds were diluted in dimethylsulfoxide (DMSO) at a concentration of 20 mM. From this solution a stock solution of 2 mM was made by dilution with phosphate-buffered saline (PBS). This 2 mM stock solution in 10% DMSO/90% PBS was used to make 2× concentrations of the titration series in cell growth medium which was added to the cell cultures in a 1:1 ratio to make 1× concentrations. Cell lines—The human tumor cell lines: MDA-MB-435 (melanoma), SKBR-3 (breast cancer) and NCI-H460 (lung cancer) were cultured in RPMI medium (RPMI; Nova Tech, Grand Island, N.Y.) containing ten percent dialyzed fetal bovine serum (FBS; Nova Tech). […]
Single Agent Pulse Studies—Treatment with test agents or standard agents (controls) was initiated 24 hours after plating cells (Day 1). […] Following incubation, the viable cell number was quantified by the MTS assay described below. […]
MTS Assay—Cell viability was determined using the MTS assay. […] Formazan production was quantified by spectrophotometric measurement at 490 nm and is proportional to viable cell number. […] Absorbance (OD) values were measured using a Dynex HD microplate reader at a single wavelength of 490 nm.
(§2) Data Analysis—Data from each experiment was collected and expressed as OD490 versus the log10 of the test agent concentration. […]

Data set [2] can be described thus: Pharmacokinetics in dog (PDX-T-07054-D). The conditions noted are these: for clearance / Vd / half-life: dog, plasma, 0.7 mg/kg; for half-life: read-out: t1/2 term. The data set is classed as in vivo. As for the experimental part:
Bioanalytical methods were developed and validated for quantitation of the 2 pralatrexate C10 diastereomers (PDX-10a and PDX-10b) in human, rat and dog plasma and urine. The basic bioanalytical method involves extraction of PDX-10a and PDX-10b from the matrix utilizing C18 solid-phase extraction (SPE) cartridges followed by derivatization (methylation with acetyl chloride) of the diastereomers for separation detection. The derivatized extracts are injected on a chiral high-performance liquid chromatography (HPLC) column for quantitation of each diastereomer by liquid chromatography-tandem mass spectrometry (LC/MS/MS). The lower limit of quantitation (LLOQ) for both diastereomers in plasma and urine matrices was 0.5 ng/mL. […]

Data set [3] concerns Type II collagen arthritis. In words: Type II collagen arthritis mouse model. The conditions noted are these: DBA/1 mice, some / other components/aspects of the arthritis, Example 7. The data set is classed as in vivo. As for the experimental part: The study uses a mouse model of inflammatory disease that occurs in response to an antigenic challenge with Type II collagen according to method described in Nature, 283, 666-668 […]. DBA/1 mice are immunized with a suspension of fetal bovine Type II collagen (1 mg/ml) prepared in complete Freund's adjuvant. The primary injection is given using 0.1 ml of the collagen emulsion giving a total of 0.1 mg of Type II collagen per mouse. The animals are given a booster injection of Type II collagen (100 μg in 0.01M acetic acid) on day 21 by intraperitoneal injection.
The effect of methotrexate and test compounds racemic PDX, PDX-10a and PDX-10b on the extent of inflammation is determined by visual observation and by direct analysis of paw swelling using caliper measurements.

Data set [4] concerns MDA-MB-435 (melanoma) human tumor cell line. In words: MTS growth inhibition assay, MDA-MB-435. The conditions noted are these: 3 h treatment, 72 h recovery. The class given is cell-based. Here is the method: as §1
Materials and Methods. Preparation of PDX-10a and PDX-10b was performed as discussed in Examples 1-2. The PDX compounds were diluted in dimethylsulfoxide (DMSO) at a concentration of 20 mM. From this solution a stock solution of 2 mM was made by dilution with phosphate-buffered saline (PBS). This 2 mM stock solution in 10% DMSO/90% PBS was used to make 2× concentrations of the titration series in cell growth medium which was added to the cell cultures in a 1:1 ratio to make 1× concentrations. Cell lines—The human tumor cell lines: MDA-MB-435 (melanoma), SKBR-3 (breast cancer) and NCI-H460 (lung cancer) were cultured in RPMI medium (RPMI; Nova Tech, Grand Island, N.Y.) containing ten percent dialyzed fetal bovine serum (FBS; Nova Tech). Once cells reached seventy percent confluency, they were trypsinized and resuspended in an alternate media (RPMI containing five percent dialyzed FBS (Hyclone, Logan, Utah). One day prior to treatment (Day 0), cultures were suspended at a concentration of 1−7.5×10^4 cell/ml and 100 μl aliquots were plated into each well of a 96-well microtiter plate at a final concentration of 1×10^3-7.5×10^3 cells/well. Cells were incubated for 24 hours at 37° C. prior to exposure with agents.
Test Agents—racemic PDX, and individual diastereomers PDX-10a and PDX-10b were prepared as described above. Cells were treated 24 hours after plating (Day 1) with vehicle (media) alone or the above test agents for three hours at concentrations between 3 μM and 10 μM.
Single Agent Pulse Studies—Treatment with test agents or standard agents (controls) was initiated 24 hours after plating cells (Day 1). Cells were incubated at 37° C. with each of the test agents or a “chemococktail” (positive control) consisting of 215 μM Etoposide, 20 μM Taxol, 38.5 nM Velcade at final concentration for three hours. Following treatment, drug was removed, growth media added, and cells incubated at 37° C. for 72 hours. Following incubation, the viable cell number was quantified by the MTS assay described below. Experiments were repeated twice at the same concentrations. Results from these studies were used to calculate an IC50 value (concentration of drug that inhibits cell growth by 50% of the vehicle) for each compound. IC50 values were generated with Prizm software.
MTS Assay—Cell viability was determined using the MTS assay. This colorimetric procedure measures conversion of the MTS reagent (a tetrazolium salt) to formazan by living cells. Formazan production was quantified by spectrophotometric measurement at 490 nm and is proportional to viable cell number. For these studies, cells were cultured and treated as listed above. At the end of the treatment, 20 μl MTS tetrazolium (1.9 mg/ml in PBS, pH 6.0) was added to the cells for 1 hour at 37° C. Absorbance (OD) values were measured using a Dynex HD microplate reader at a single wavelength of 490 nm.
as §2
(In general: Tetrazolium assays rely on reduction of a dye to a coloured formazan, in cell work by metabolically active cells.)

In another data set the test system is tumor xenotransplant. The data set can be described thus: In vivo xenograft models with solid tumors and lymphomas. The conditions noted are these: nude female mice, IP injection; some / other explants; Example 6. As for the experimental part: Nude female mice are inoculated subcutaneously in the right flank with appropriate tumor cells as discussed in Example 5 to establish the xenotransplant. Tumor volume and body weights are monitored twice a week. Once the established tumor reaches 75-150 mm^3 the mice are randomized to a treatment group, either control, racemic PDX, PDX-10a, or PDX-10b. Treatments are administered by IP injection. Phosphate buffered saline is administered as control vehicles.

Setting [5] is: both sexes, Day 1, 0.7 mg/kg, range of the mean for males and females and for PDX-10a and PDX-10b, read-out: CLtot.
Setting [6] is: both sexes, Day 1, 0.7 mg/kg, range of the mean for males and females and for PDX-10a and PDX-10b, read-out: Vdss.
The mark [7] stands for this setting: both sexes, Day 1, 0.7 mg/kg, range of the mean for males and females and for PDX-10a and PDX-10b.
The mark [8] stands for this setting: both sexes, Day 1, calculated using average BW 8.5 kg, read-out: Vdss relative to BW.
Setting [9] is: both sexes, Day 281, 0.7 mg/kg, range of the mean for males and females and for PDX-10a and PDX-10b, read-out: CLtot.
Setting [10] is: both sexes, Day 281, 0.7 mg/kg, range of the mean for males and females and for PDX-10a and PDX-10b, read-out: Vdss.
The mark [11] stands for this setting: both sexes, Day 281, 0.7 mg/kg, range of the mean for males and females and for PDX-10a and PDX-10b.
Setting [12] is: Day 1, calculated using average BW 8.5 kg, read-out: CLtot relative to BW.
Where [13] appears, read: Homo sapiens, MDA-MB-435, MDA-MB-435 (melanoma).

As for `C#CC[C@@H](Cc1cnc2nc(N)nc(N)c2n1)c1ccc(C(=O)N[C@@H](CCC(=O)O)C(=O)O)cc1` (single isomer, unassigned) [PDX-10a], in the data set with cancer cell lines, the “cytotoxic activity relative to racemate and other diastereomer” value is recorded as “increased activity relative to racemic PDX and/or PDX-10b”. Also, the results for the pIC50 in data set [1] and in data set [4] (setting [13]) were 7.92 and 7.00, respectively. Besides, the figures for the clearance in data set [2] (setting [5]), in data set [2] (setting [9]) and in data set [2] (setting [12]) were 34 to 81 mL/min, 58 to 95 mL/min and 4 to 10 mL/min/kg, respectively. Further, the Vd in data set [2] (setting [6]) was 8 to 16 L; in data set [2] (setting [8]), 0.9 to 1.9 L/kg; in data set [2] (setting [10]), 15 to 24 L. In addition, the half-life in data set [2] (setting [7]) was in the range of 4.4 to 4.9 h; in data set [2] (setting [11]), 4.7 to 5.5 h. The “antiarthritic activity relative to racemate and other diastereomer” value in data set [3] is reported as “increased activity relative to racemic PDX and/or PDX-10b”. Further, the “xenograft activity relative to racemate and other diastereomer” value in the data set on tumor xenotransplant is recorded as “increased activity relative to racemic PDX and/or PDX-10b”.

On to `C#CC[C@H](Cc1cnc2nc(N)nc(N)c2n1)c1ccc(C(=O)N[C@@H](CCC(=O)O)C(=O)O)cc1` (single isomer, unassigned) [PDX-10b], for which the “cytotoxic activity relative to racemate and other diastereomer” value in the data set on cancer cell lines is reported as “increased activity relative to racemic PDX and/or PDX-10a”. Further, the figures for the pIC50 in data set [1], in data set [4] (setting [13]) and in data set [4] (MDA-MB-435 (melanoma)) were 7.58, 6.92 and 6.92, respectively. Also, the results for the clearance in data set [2] (setting [5]), in data set [2] (setting [9]) and in data set [2] (setting [12]) were 34 to 81 mL/min, 58 to 95 mL/min and 4 to 10 mL/min/kg, respectively. In addition, the Vd in data set [2] (setting [6]) was 8 to 16 L; in data set [2] (setting [8]), 0.9 to 1.9 L/kg; in data set [2] (setting [10]), 15 to 24 L. Moreover, the results for the half-life in data set [2] (setting [7]) and in data set [2] (setting [11]) were 4.4 to 4.9 h and 4.7 to 5.5 h, respectively. Also, the “higher clearance of PDX-10b compared with PDX-10a” value in data set [2] (dogs) is 2 fold. For the same compound, in data set [3], the “antiarthritic activity relative to racemate and other diastereomer” value is listed as “increased activity relative to racemic PDX and/or PDX-10a”. Moreover, in the data set with tumor xenotransplant, the “xenograft activity relative to racemate and other diastereomer” value is “increased activity relative to racemic PDX and/or PDX-10a”.

One may read the pIC50 as the IC50 on a negative log10 scale, so that one unit is a factor of ten. A lower pIC50 goes with a high IC50.
